Source: article PMC10825133, “Repurposing proteasome inhibitors for improved treatment of triple-negative breast cancer” (Cell Death Discovery, 2024)
Like-named read-outs stand apart in the source and are kept apart here.

Columns and labels:
[1] = system: eight TNBC cell lines (BT-549, CAL-148, HCC1806, HCC38, HCC70, MDA-MB-436, MDA-MB-453, MDA-MB-468); test: Monotherapy drug screen, mean across the TNBC cell lines
Procedure: Eighteen pharmaceutical compounds were purchased from Selleckchem (Supplementary Table 2). Stock solutions were prepared using dimethyl sulfoxide (DMSO; Merck), physiological saline (sodium chloride 0.9%) or Milli-Q water, and stored at −80 °C. […] Matched concentration solvent vehicle controls were used for each drug concentration. The drug screens were performed in triplicate and repeated three (monotherapy) or two (combination therapy) times (Fig. 7).
The optimal seeding density per 96-well was determined for each cell line as previously described. The cells were seeded at a density of 4.0 × 10^3 to 7.5 × 10^3 (cell type dependent) in 96-well clear, flat-bottom microplates (Corning Life Sciences, Sigma-Aldrich) in 100 µl complete culture medium (Supplementary Table 1) and cultured for 24 h. Cell viability was determined using the resazurin assay in untreated cells at the time of plating (t = 0) and treated cells after 24 h drug treatment (Fig. 7). Percentage cell viability was calculated as 100% × (absorbance of treated cells – absorbance of background controls) / (absorbance of matched solvent vehicle controls – absorbance of background controls). The area under the curve (AUC), half-maximal inhibitory concentration (IC50), drug potency (GR50), and drug efficacy (GRmax) were determined for each compound using the GRmetrics (version 1.20.0) package in R. The monotherapy data were evaluated with the IDACombo (version 1.0.2) package in R to predict potential drug combinations (Table 1). SynergyFinder (version 3.2.10) package in R was used to identify synergistic drug combinations.
Eighteen pharmaceutical compounds were purchased from Selleckchem. […] The solubility of the compound was enhanced by pre-heating the solvent (lukewarm), if necessary. […] The stock solutions were stored at -80°C. […] Matched concentration solvent vehicle controls were used for each drug concentration. The drug screens were performed in triplicate and repeated three times for the monotherapies and twice for the combination treatments. The drug(s) and corresponding controls were plated in 96-well PCR plates (VWR) and stored at -20°C (Fig. 6). The drug plates were thawed, centrifuged (3000 rpm for 30s), and acclimatized to RT before the drugs were added to the cells. New drug plates were prepared for each drug screen.
The cells were seeded at a density of 4.0x10^3 to 7.5x10^3 (cell type-dependent) in 96-well clear, flat-bottom microplates (Corning Life Sciences, Sigma-Aldrich) in 100 µl culture medium supplemented with 10% FBS and cultured for 24h. Cell viability was determined using the resazurin assay after 24h drug treatment (Fig. 6). Percentage cell viability was calculated as 100% × (absorbance of treated cells – absorbance of background controls) / (absorbance of matched solvent vehicle controls – absorbance of background controls). Normalized growth rate inhibition (GR) was assessed using the absorbance of untreated cells after the time of plating (t = 0). […] For combination treatment, the monotherapy data were evaluated with the IDACombo (version 1.0.2)[20] package in R to predict potential drug combinations (Table 1). SynergyFinder (version 3.2.10)[21] package in R was used to identify synergistic drug combinations.

MCF-7 cells = test: Resazurin-based cell viability assay, monotherapy drug screen; design: species or system human; AUC: scale not given here; details: for IC50: Homo sapiens; for AUC: area under the dose response curve, 24 h; for GRmax: drug efficacy at highest tested dose (<0 cytotoxic, 0 cytostatic, >0 partial growth inhibition)
Procedure: (§1) Eighteen pharmaceutical compounds were purchased from Selleckchem. […] The stock solutions were stored at -80°C. […] New drug plates were prepared for each drug screen.
(§2) To determine the optimal seeding density and ensure that the cells were in the exponential phase during the duration of the experiment (approx. 52h), each cell line (BT-549, CAL-148, HCC1806, HCC38, HCC70, MCF-10A, MCF-7, MDA-MB-436, MDA-MB-453, and MDA-MB-468) was seeded at different concentrations (1000 to 16000 cells) per 96-well, as previously described. Cell viability was measured daily (day 0 [plating day] to day 4) using 0.2 mg/ml resazurin solution prepared from resazurin sodium salt (Fisher Scientific) dissolved in sterile 1xPBS (ThermoFisher Scientific). Before use, the resazurin solution was brought to RT before 10 µl (10% of cell medium volume) was added to each 96-well and incubated for 4h at 37°C. The absorbance was measured with a 560 nm excitation filter and a 615 nm emission filter in a Wallac 1420 VICTOR2™ microplate reader (Perkin Elmer). The slope of the curve was used to determine the optimal seeding density, i.e., the highest seeding density with linear growth between days 1 and 3.

MDA-MB-436 cells = test: as above; design: species or system human; AUC: scale not given here; details: for IC50: Homo sapiens; for AUC: area under the dose response curve, 24 h; for GRmax: drug efficacy at highest tested dose (<0 cytotoxic, 0 cytostatic, >0 partial growth inhibition)
Procedure: as §1, §2

MDA-MB-468 cells = test: as above; design: species or system human; AUC: scale not given here; details: for IC50: Homo sapiens; for AUC: area under the dose response curve, 24 h
Procedure: as §1, §2

HCC38 cells = test: as above; design: species or system human; AUC: scale not given here; details: for AUC: area under the dose response curve, 24 h; for GRmax: drug efficacy at highest tested dose (<0 cytotoxic, 0 cytostatic, >0 partial growth inhibition); for IC50: Homo sapiens
Procedure: as §1, §2

HCC70 cells = test: as above; design: species or system human; AUC: scale not given here; details: for AUC: area under the dose response curve, 24 h; for GRmax: drug efficacy at highest tested dose (<0 cytotoxic, 0 cytostatic, >0 partial growth inhibition); for IC50: Homo sapiens
Procedure: as §1, §2

MDA-MB-453 cells = test: as above; design: species or system human; AUC: scale not given here; details: for IC50: Homo sapiens; for AUC: area under the dose response curve, 24 h
Procedure: as §1, §2

BT-549 cells = test: as above; design: species or system human; AUC: scale not given here; details: for AUC: area under the dose response curve, 24 h; for GRmax: drug efficacy at highest tested dose (<0 cytotoxic, 0 cytostatic, >0 partial growth inhibition); for IC50: Homo sapiens
Procedure: as §1, §2

HCC1806 cells = test: as above; design: species or system human; AUC: scale not given here; details: for AUC: area under the dose response curve, 24 h; for GRmax: drug efficacy at highest tested dose (<0 cytotoxic, 0 cytostatic, >0 partial growth inhibition); for IC50: Homo sapiens
Procedure: as §1, §2

MCF-10A cells = test: as above; design: species or system human; AUC: scale not given here; details: for IC50: Homo sapiens; for AUC: area under the dose response curve
Procedure: as §1, §2

For `CC(C)C[C@H](NC(=O)[C@H](CCc1ccccc1)NC(=O)CN1CCOCC1)C(=O)N[C@@H](Cc1ccccc1)C(=O)N[C@@H](CC(C)C)C(=O)[C@@]1(C)CO1` [Carfilzomib], the IC50 ([1]; Homo sapiens, 24 h, read-out: GR50 (mean ± SD)) was 440 ± 340 nM, the “area under the dose response curve (AUC), mean ± SD” value ([1]; TNBC cell lines, 24 h) was 0.73 ± 0.10 and the IC50 (MCF-7 cells; MCF7, MCF-7, growth rate inhibition concentration at GR(c) = 0.5, 24 h, read-out: GR50 (the source's name)) was 0.19 µM. For the same compound, the AUC (MCF-7 cells; MCF-7) was 0.81, the GRmax (MCF-7 cells; MCF-7) was −0.45 and the IC50 (MDA-MB-436 cells; MDA-MB-436, growth rate inhibition concentration at GR(c) = 0.5, 24 h, read-out: GR50 (the source's name)) was 0.0018 µM. The AUC (MDA-MB-436 cells; MDA-MB-436) was 0.73, the GRmax (MDA-MB-436 cells; MDA-MB-436) was −0.89 and the IC50 (MDA-MB-468 cells; MDA-MB-468, 24 h drug treatment, read-out: IC50) was 0.46 µM. For the same compound, the IC50 (MDA-MB-468 cells; MDA-MB-468, growth rate inhibition concentration at GR(c) = 0.5, 24 h, read-out: GR50 (the source's name)) was 0.11 µM, the AUC (MDA-MB-468 cells; MDA-MB-468) was 0.65 and the AUC (HCC38 cells; HCC38) was 0.71. It also gave a GRmax (HCC38 cells; HCC38) of −0.99, an IC50 (HCC38 cells; HCC38, 24 h drug treatment, read-out: IC50) of 0.57 µM and an IC50 (HCC38 cells; HCC38, growth rate inhibition concentration at GR(c) = 0.5, 24 h, read-out: GR50 (the source's name)) of 0.38 µM. It also gave an AUC (HCC70 cells; HCC70) of 0.76, a GRmax (HCC70 cells; HCC70) of −0.57 and an IC50 (HCC70 cells; HCC70, 24 h drug treatment, read-out: IC50) of 2.1 µM. For the same compound, the IC50 (HCC70 cells; HCC70, growth rate inhibition concentration at GR(c) = 0.5, 24 h, read-out: GR50 (the source's name)) was 0.48 µM, the IC50 (MDA-MB-453 cells; MDA-MB-453, growth rate inhibition concentration at GR(c) = 0.5, 24 h, read-out: GR50 (the source's name)) was 0.22 µM and the AUC (MDA-MB-453 cells; MDA-MB-453) was 0.77. It also gave an AUC (BT-549 cells; BT-549) of 0.67, a GRmax (BT-549 cells; BT-549) of 0.37 and an IC50 (BT-549 cells; BT-549, 24 h drug treatment, read-out: IC50) of 4.4 µM. It also gave an IC50 (BT-549 cells; BT-549, growth rate inhibition concentration at GR(c) = 0.5, 24 h, read-out: GR50 (the source's name)) of 1 µM, an AUC (HCC1806 cells; HCC1806) of 0.73 and a GRmax (HCC1806 cells; HCC1806) of 0.31. The IC50 (HCC1806 cells; HCC1806, 24 h drug treatment, read-out: IC50) was 1.7 µM, the IC50 (HCC1806 cells; HCC1806, growth rate inhibition concentration at GR(c) = 0.5, 24 h, read-out: GR50 (the source's name)) was 0.95 µM and the IC50 (MCF-10A cells; 24 h drug treatment, read-out: IC50) was 0.54 µM. It also gave an IC50 (MCF-10A cells; growth rate inhibition concentration at GR(c) = 0.5, 24 h, read-out: GR50 (the source's name)) of 0.11 µM and an AUC (MCF-10A cells; 24 h) of 0.66.
`CC1=C(O)C(=O)C=C2C1=CC=C1[C@@]2(C)CC[C@@]2(C)[C@@H]3C[C@](C)(C(=O)O)CC[C@]3(C)CC[C@]12C` [Celastrol] was tested, and the “cytotoxic effect at the highest dose” value ([1]; TNBC cell lines, by GRmax) was “cytotoxic”, the IC50 (MCF-7 cells; MCF7, 24 h) was 2.8 µM and the IC50 (MCF-7 cells; MCF7, 24 h, read-out: GR50 (µM)) was 3.3 µM. It also gave an AUC (MCF-7 cells; MCF-7) of 0.89, a GRmax (MCF-7 cells; MCF-7) of −0.30 and an IC50 (MDA-MB-436 cells; MDA-MB-436, 24 h) of 3.2 µM. It also gave an IC50 (MDA-MB-436 cells; MDA-MB-436, 24 h, read-out: GR50 (µM)) of 2.4 µM, an AUC (MDA-MB-436 cells; MDA-MB-436) of 0.85 and a GRmax (MDA-MB-436 cells; MDA-MB-436) of −0.63. For the same compound, the IC50 (MDA-MB-468 cells; MDA-MB-468, 24 h) was 1 µM, the IC50 (MDA-MB-468 cells; MDA-MB-468, 24 h, read-out: GR50 (µM)) was 0.75 µM and the AUC (MDA-MB-468 cells; MDA-MB-468) was 0.75. It also gave an AUC (HCC38 cells; HCC38) of 0.79, a GRmax (HCC38 cells; HCC38) of −0.96 and an IC50 (HCC38 cells; HCC38, 24 h) of 1.4 µM. For the same compound, the IC50 (HCC38 cells; HCC38, 24 h, read-out: GR50 (µM)) was 1.2 µM, the AUC (HCC70 cells; HCC70) was 0.82 and the GRmax (HCC70 cells; HCC70) was −0.98. The IC50 (HCC70 cells; HCC70, 24 h) was 1.8 µM, the IC50 (HCC70 cells; HCC70, 24 h, read-out: GR50 (µM)) was 1.2 µM and the IC50 (MDA-MB-453 cells; MDA-MB-453, 24 h) was 3.7 µM. It also gave an IC50 (MDA-MB-453 cells; MDA-MB-453, 24 h, read-out: GR50 (µM)) of 3.4 µM, an AUC (MDA-MB-453 cells; MDA-MB-453) of 0.87 and an AUC (BT-549 cells; BT-549) of 0.82. It also gave a GRmax (BT-549 cells; BT-549) of −0.51, an IC50 (BT-549 cells; BT-549, 24 h) of 1.3 µM and an IC50 (BT-549 cells; BT-549, 24 h, read-out: GR50 (µM)) of 1.5 µM. The AUC (HCC1806 cells; HCC1806) was 0.81, the GRmax (HCC1806 cells; HCC1806) was −0.82 and the IC50 (HCC1806 cells; HCC1806, 24 h) was 2.1 µM. It also gave an IC50 (HCC1806 cells; HCC1806, 24 h, read-out: GR50 (µM)) of 3.4 µM, an IC50 (MCF-10A cells; 24 h) of 1.6 µM and an IC50 (MCF-10A cells; 24 h, read-out: GR50 (µM)) of 1.8 µM. The AUC (MCF-10A cells; 24 h) was 0.81.
